{"source": "paper PMC7071059", "about": "“Targeting Receptor Tyrosine Kinase VEGFR-2 in Hepatocellular Cancer: Rational Design, Synthesis and Biological Evaluation of 1,2-Disubstituted Benzimidazoles” (Molecules, 2020)", "key": {"HepG2 cells [1]": {"tested_on": "HepG2 cells", "assay": "Apoptosis assay, Annexin V-FITC/PI flow cytometry", "assay_type": "cell-based, human", "conditions": "48 h; for early apoptotic phase (Q4): control 0.80%; for late apoptotic phase (Q2): control 4.59%", "text": "Moreover, in order to examine the effect of compound 17a on cell apoptosis (programed cell death), the morphological markers of apoptosis of the HepG2 cell line were examined before and after treatment with 17a. This assay is based on the fact that cells performing apoptosis translocate their phosphatidylserine (PS) phospholipid to the cell surface, which, in turn, can be easily detected by staining with a fluorescent conjugate of annexin V, followed by flow cytometry analysis. Concurrently, the HepG2 cells were stained with propidium iodide (PI), which enters only cells with damaged plasma membranes. This stain allows the discrimination between early apoptotic cells (positive for PS, but negative for PI) from late apoptotic and necrotic cells (positive for both PS and PI).\nApoptosis and necrosis cell populations were determined using an Annexin V-FITC apoptosis detection kit (Abcam Inc., Cambridge Science Park, Cambridge, UK) coupled with 2 fluorescent channels flowcytometry. After treatment with test compounds for 48 h, cells (10^5 cells) were collected by trypsinization and washed twice with ice-cold PBS (pH 7.4). Then, cells were incubated in the dark with 0.5 ml of Annexin V-FITC/PI solution for 30 min in the dark at room temperature, according to the manufacturer’s protocol. After staining, cells were injected via ACEA Novocyte™ flowcytometer (ACEA Biosciences Inc., San Diego, CA, USA) and analyzed for FITC and PI fluorescent signals using FL1 and FL2 signal detectors, respectively (λex/em 488/530 nm for FITC and λex/em 535/617 nm for PI). For each sample, 12,000 events were acquired, and positive FITC and/or PI cells were quantified by quadrant analysis and calculated using ACEA NovoExpress™ software (ACEA Biosciences Inc., San Diego, CA, USA)."}, "HepG2 cells [2]": {"tested_on": "HepG2 cells", "assay": "Analysis of cell cycle distribution, flow cytometry of propidium iodide-stained nuclei", "assay_type": "cell-based, human", "conditions": "HepG2, 2 µM, 48 h", "protocol": "Based on the promising antiproliferative activity and antiangiogenic activity of series 17, compound 17a was further assayed for its effect on the cell cycle distribution by flow cytometric analyses of propidium iodide-stained nuclei at 2 µM. Cell cycle parameters were compared for HepG2 cells with DMSO as control and after treatment with 17a and incubation for 48 h, and the results were depicted in Figure 8.\nAfter treatment with test compounds for 48 h, cells (10^5 cells) were collected by trypsinization and washed twice with ice-cold PBS (pH 7.4). Cells were resuspended in two milliliters of 60% ice-cold ethanol and incubated at 4 °C for 1 h for fixation. Fixed cells were washed twice again with PBS (pH 7.4) and resuspended in 1 mL of PBS containing 50 µg/mL RNAase A and 10 µg/mL propidium iodide (PI). After 20 min of incubation in dark at 37 °C, cells were analyzed for DNA contents using flow cytometry analysis using an FL2 (λex/em 535/617 nm) signal detector (ACEA Novocyte™ flowcytometer, ACEA Biosciences Inc., San Diego, CA, USA). For each sample, 12,000 events were acquired. The cell cycle distribution was calculated using ACEA NovoExpress™ software (ACEA Biosciences Inc., San Diego, CA, USA)."}}, "data": [{"smiles": "CC(C)c1nc2ccccc2n1CC(=O)N/N=C/c1cccc(OCc2ccccc2)c1", "note": "[Compound 17a, (E)-N′-(3-(Benzyloxy)benzylidene)-2-(2-isopropyl-1H-benzo[d]imidazol-1-yl)acetohydrazide]", "values": [{"measurement": "early apoptotic phase (Q4)", "setting": "HepG2 cells [1]; HepG2, 2 μM", "result": 2.90, "unit": "%"}, {"measurement": "late apoptotic phase (Q2)", "setting": "HepG2 cells [1]; HepG2, 2 μM", "result": 8.89, "unit": "%"}, {"measurement": "early apoptotic phase (Q4)", "setting": "HepG2 cells [1]; HepG2, 5 μM", "result": 6.32, "unit": "%"}, {"measurement": "late apoptotic phase (Q2)", "setting": "HepG2 cells [1]; HepG2, 5 μM", "result": 9.53, "unit": "%"}, {"measurement": "Freq S", "setting": "HepG2 cells [2]", "result": 26.96, "unit": "%"}, {"measurement": "effect on the HepG2 cell cycle", "setting": "HepG2 cells [2]", "result": "arrests the cell cycle at the G2/M phase"}, {"measurement": "percent of cells accumulated in the G2 phase (Freq G2)", "setting": "HepG2 cells [2]; control 13.43%", "result": 25.86, "unit": "%"}, {"measurement": "percent of cell distribution in the G1 phase (Freq G1)", "setting": "HepG2 cells [2]; control 51.34%", "result": 46.96, "unit": "%"}]}]}
